Data from US10875864B2, “Substituted imidazo[1,2-B]pyridazines as protein kinase inhibitors” (SUMITOMO DAINIPPON PHARMA ONCOLOGY, INC., priority 2011, dated 2020).

Experiments:
22RV1/PIM-1 xenografts = test: 22RV1/PIM-1 over-expression tumor xenograft; format: in vivo, mouse
Text: (§1) Male and female Nu/Nu mice were purchased from Harlan Sprague Dawley (Indianapolis, Ind.). Female Nu/Nu mice were used for all xenograft evaluations with the exception of the PC-3 xenografts where male Nu/Nu mice were used. Cell lines were expanded in vitro in complete media, and if adherent were harvested by trypsin-EDTA, centrifuged and resuspended in PBS 1:1 with Matrigel (BD Bioscienes). Cells were inoculated subcutaneously in the right hind flank of mice. When tumors reached 100-200 mm^3 by caliper measurement, mice were randomized and dosing of SGI-9481 or vehicle control began and continued every day for 5 days (QD×5) with 2 days off for 18-21 days. Tumor volumes and body weights were determined twice a week, and tumor weights were measured at the completion of the translational xenograft studies.
(§2) The prostate cancer cell line 22RV1 engineered to over-express PIM-1 as previously described (Mumenthaler, et al, Mol. Cancer Ther., 2009, 8(10)2882-93) was evaluated in vivo. A second model engineered to over-express PIM-2 was established using the NIH-3T3 mouse fibroblast cell line.

MV-4-11 (FLT3-ITD) = test: MV-4-11 mouse xenograft; format: in vivo
Text: as §1

UM-UC-3 cells = test: Colony formation assay, UM-UC-3; format: cell-based
Protocol: (§3) For shRNA growth experiments, 500 UM-UC-3 cells were seeded in a 12-well plate 48 hours post-transduction and cultured for 8-10 days at 37° C. in 5% CO2. Cells were fixed with 4% paraformaldehyde in PBS, washed twice with PBS, and stained with a crystal violet solution (1% crystal violet, 10% ethanol in water). Stained cells were washed thrice with water, and imaged after drying on a GelCount colony counter (Oxford Optronix Ltd., Oxford, UK). Total staining intensity per well was determined by lysis of cells with 200 μl of Triton X-100 lysis buffer (1% Triton X-100, 50 mM Tris-HCl pH 7.4, 150 mM NaCl, 1 mM EDTA). Lysates (100 μl) from each well were transferred to a clear 96-well plate and absorbance at 560 nm was determined on an Envision microplate reader. IC50 values were determined using GraphPad Prism software. For compound treated PC-3 and UM-UC-3, cells were seeded and stained as above, but were incubated with various concentrations of test compound or DMSO one day after seeding.
(§4) Translational models were also explored for PIM dependency using shRNA knockdown. The UM-UC-3 urinary epithelial bladder carcinoma cell line was used to verify and validate dependency on PIM-1 for growth. […] Reduction of PIM-1 mRNA and growth also were observed using both PIM-1 and PIM-2 shRNA in the androgen-independent prostate carcinoma cell line PC-3 (data not shown).

[1] = test system: phosphatidyl inositol-3-kinase (PI3K) family; test: Selectivity study, PI3K family; format: biochemical; conditions: multiple members
UM-UC-3 xenograft tumors = test: UM-UC-3 established mouse xenograft; format: in vivo
Text: as §1, with “When tumors reached 100-200 mm^3 by caliper measurement, mice were randomized and dosing of SGI-9481 or vehicle control began and continued every day for 5 days (QD×5) with 2 days off for 18-21 days.” left out

NIH-3T3/PIM-2 xenografts = test: NIH-3T3/PIM-2 over-expression tumor xenograft; format: in vivo, mouse
Text: as §1, §2

[2] = test system: ML-2 cells (wild-type FLT3); test: ML-2 mouse xenograft; format: in vivo; conditions: ML-2, wild-type FLT3
Text: as §1

PC-3 cells = test: Colony formation assay, PC-3; format: cell-based
Protocol: as §3, §4

PC-3 xenograft tumors = test: PC-3 established mouse xenograft; format: in vivo
Text: as §1, with “When tumors reached 100-200 mm^3 by caliper measurement, mice were randomized and dosing of SGI-9481 or vehicle control began and continued every day for 5 days (QD×5) with 2 days off for 18-21 days.” left out

CC(C)(O)[C@H]1CC[C@H](Nc2ccc3ncc(-c4cccc(C(F)(F)F)c4)n3n2)CC1 [Compound 8-31]
subcutaneous tumor growth (22RV1/PIM-1 xenografts; 22RV1/PIM-1 + compound vs vehicle): significantly reduced | body weight change (22RV1/PIM-1 xenografts; 22RV1 xenograft mice): No significant changes in body weight | effect on established xenografts (MV-4-11 (FLT3-ITD)): induced regressions | colony growth (UM-UC-3 cells): reduced colony growth | activity against PI3K family members [1]: inhibitory activity | tumor growth inhibition (UM-UC-3 xenograft tumors; 125 mg/kg): significant tumor growth inhibition | body weight and gross toxicity (UM-UC-3 xenograft tumors; oral 200 mg/kg): no significant changes in body weight or gross adverse toxicity | tumor growth by volume and final tumor weight (UM-UC-3 xenograft tumors; oral 200 mg/kg): significantly reduced | subcutaneous tumor growth (NIH-3T3/PIM-2 xenografts; NIH-3T3/PIM-2 + compound vs vehicle): significantly inhibited | body weight change (NIH-3T3/PIM-2 xenografts; NIH-3T3 xenograft mice): No significant changes in body weight | tumor growth inhibition [2]: significant tumor growth inhibition | colony growth (PC-3 cells): reduced colony growth | tumor growth inhibition (PC-3 xenograft tumors; 125 mg/kg): significant tumor growth inhibition | body weight and gross toxicity (PC-3 xenograft tumors; oral 200 mg/kg): no significant changes in body weight or gross adverse toxicity | tumor growth by volume and final tumor weight (PC-3 xenograft tumors; oral 200 mg/kg): significantly reduced
